Starred links: 1 amine or outer side, 2 acyl side, 3 side chain; linkers in the order of their positions; H or OH if unused. Positions of bridges follow the written chain, without caps; N, C: chain ends. Non-standard residues stand in square brackets, D forms with d. Residues, ends and D or L forms follow the SMILES beside them. *: point of attachment. Orn(4R-OH,5R-OCH2CH2NMe3+) = C[N+](C)(C)CCO[C@@H](N[*:3])[C@H](O)C[C@H](N[*:1])C(=O)[*:2]; hTyr(3S-OH,4S-OH,3'-OSO3H) = N[C@H](C(=O)O)[C@H](O)[C@@H](O)c1ccc(O)c(OS(=O)(=O)O)c1; pTerphenylCO(4''-OnC5H11) = CCCCCOc1ccc(-c2ccc(-c3ccc(C(=O)*)cc3)cc2)cc1; Orn(4R-OH,5R-OH) = O=C([C@H](C[C@@H](O)[C@@H](O)N[*:3])N[*:1])[*:2]; hTyr(3S-OH,4S-OH) = N[C@H](C(=O)O)[C@H](O)[C@@H](O)c1ccc(O)cc1; Pro(3S-OH,4S-Me) = C[C@H]1CN[C@H](C(=O)O)[C@H]1O; X1 = CCCCCOc1ccc(-c2cc(-c3ccc(C(=O)*)cc3)no2)cc1; Gln(3R-OH) = NC(=O)C[C@@H](O)[C@H](N)C(=O)O; Hyp = O=C(O)[C@@H]1C[C@@H](O)CN1
Experiments:
A. fumigatus ATCC 13073 = experiment: Antifungal susceptibility testing (MEC, CLSI M38-A2); format: cell-based, Aspergillus fumigatus; conditions: for Drug susceptibility testing result, ATCC 13073: 24 h, Fig 1B
Description: (§1) Minimum effective concentrations (MECs) for A. fumigatus strains were determined according to CLSI document M38-A2 ([48]) and defined as the lowest drug concentration that led to the growth of small, rounded, compact hyphal forms compared to the hyphal growth seen in the drug-free growth control wells. The following drugs (supplier) were tested: caspofungin (Merck & Co., Inc.), micafungin (Astellas Pharma US, Inc.), anidulafungin (Pfizer Inc.), itraconazole (Sigma-Aldrich), voriconazole (Pfizer Inc.), and amphotericin B (Sigma-Aldrich). In addition, rezafungin and ibrexafungerp were obtained from Cidara Therapeutics and Scynexis Inc., respectively.

A. fumigatus RG101 [1] = format: cell-based, Aspergillus fumigatus; conditions: for Growth phenotype of RG101 with drug alone: 1 μg/ml drug, RPMI 1640, absence of CAS; for Growth phenotype of RG101 with drug alone / Drug susceptibility testing result, RG101: 24 h; for Drug susceptibility testing result, RG101: Fig 1B
Description: The following drugs (supplier) were tested: caspofungin (Merck & Co., Inc.), micafungin (Astellas Pharma US, Inc.), anidulafungin (Pfizer Inc.), itraconazole (Sigma-Aldrich), voriconazole (Pfizer Inc.), and amphotericin B (Sigma-Aldrich). In addition, rezafungin and ibrexafungerp were obtained from Cidara Therapeutics and Scynexis Inc., respectively.

[2] = tested on: Aspergillus fumigatus clinical isolate 117; experiment: Antifungal susceptibility testing (MEC, CLSI M38-A2); format: cell-based; conditions: clinical isolate 117, fks1 WT
Description: as §1

[3] = tested on: Aspergillus fumigatus clinical isolate 2770; experiment: as above; format: cell-based; conditions: clinical isolate 2770, fks1 WT
Description: as §1

[4] = tested on: Aspergillus fumigatus clinical isolate 32315; experiment: as above; format: cell-based; conditions: clinical isolate 32315, fks1 WT
Description: as §1

[5] = tested on: Aspergillus fumigatus clinical isolate 32458; experiment: as above; format: cell-based; conditions: clinical isolate 32458, fks1 WT
Description: as §1

[6] = tested on: Aspergillus fumigatus clinical isolate 68284B; experiment: as above; format: cell-based; conditions: fks1 WT
Description: as §1

[7] = tested on: A. fumigatus S679P (fks1 Ser-679-Pro mutant); experiment: as above; format: cell-based, Aspergillus fumigatus
Description: as §1

A. fumigatus RG101 [8] = experiment: Acute pulmonary aspergillosis model in neutropenic DBA/2 mice, lung fungal burden by qPCR; format: in vivo, Aspergillus fumigatus
Description: Resistance of RG101 to CAS in vivo was tested in an acute pulmonary aspergillosis model. Thirty inbred DBA/2 mice were rendered neutropenic and infected with 1 × 10^6 RG101 conidia intratracheally. The mice were then treated with CAS (5 mg/kg of body weight), MFG (5 mg/kg), or vehicle daily for 5 days, and lung burdens were determined using quantitative PCR (qPCR). Details of the experiment are provided in Text S1 in the supplemental material.
All animal experiments performed were approved by the Rutgers University Institutional Animal Care and Use Committee. Thirty female DBA/2 mice [The Jackson Laboratory, Bar Harbor, ME] were used in the experiment. The mice were housed in cages equipped with HEPA filters and were allowed free access to food and water. To establish neutropenia, mice were immunosuppressed with cyclophosphamide on days -4 (150 mg/kg), -1 and +2 (100 mg/kg) intraperitoneally (ip) and hydrocortisone on day -1 (200 mg/kg) via subcutaneous injection (sc). The animals were given prophylaxis sc ceftazidime (50 mg/kg) on all days to prevent secondary bacterial infections. A. fumigatus RG101 was streaked out from a frozen glycerol stock and cultured on Potato dextrose agar (PDA) slant for 2 days. The spores were harvested in phosphate-buffered saline (PBS) with 0.05% (v/v) Tween 20 and counted in a hemocytometer. The mice were briefly anesthetized IP Ketamine (65 mg/kg)/Xylazine (5 mg/kg) and infected with 1×10^6 spores of RG101 in 25 µL volume via intratracheal instillation. The 30 RG101 infected mice were randomized into following treatment arms for IP treatment: vehicle, CAS (5 mg/kg), and MFG (5 mg/kg). The first treatment was given at 3 h post infection (PI) and continued daily treatments were administered. On day 5 PI, mice were humanely euthanized via CO2 narcosis. Lungs were excised and homogenized in 1 ml of sterile PBS using a 2 ml tube containing ceramic spheres by MP Biomedicals (116913500). Tissue was then homogenized in 20 s bursts in a mini bead beater (MP FastPrep-24) followed by cooling on ice. DNA was then isolated from an aliquot of the lung homogenate (100 μl) using the QIAamp DNA Mini Kit by Qiagen (51304) and analyzed by real-time quantitative PCR (qPCR) using primers specific for A. fumigatus 18S rRNA genes (Wiederhold et al 2004).

[9] = molecular target: β-(1,3)-D-glucan synthase of RG101 (Aspergillus fumigatus, UniProt Q4WLT4); experiment: Glucan synthase kinetic inhibition assay, enzyme from RG101; format: biochemical; conditions: enzyme from RG101 grown at 4 μg/ml CAS
Chain of β-(1,3)-D-glucan synthase of RG101 (Q4WLT4 1-1904): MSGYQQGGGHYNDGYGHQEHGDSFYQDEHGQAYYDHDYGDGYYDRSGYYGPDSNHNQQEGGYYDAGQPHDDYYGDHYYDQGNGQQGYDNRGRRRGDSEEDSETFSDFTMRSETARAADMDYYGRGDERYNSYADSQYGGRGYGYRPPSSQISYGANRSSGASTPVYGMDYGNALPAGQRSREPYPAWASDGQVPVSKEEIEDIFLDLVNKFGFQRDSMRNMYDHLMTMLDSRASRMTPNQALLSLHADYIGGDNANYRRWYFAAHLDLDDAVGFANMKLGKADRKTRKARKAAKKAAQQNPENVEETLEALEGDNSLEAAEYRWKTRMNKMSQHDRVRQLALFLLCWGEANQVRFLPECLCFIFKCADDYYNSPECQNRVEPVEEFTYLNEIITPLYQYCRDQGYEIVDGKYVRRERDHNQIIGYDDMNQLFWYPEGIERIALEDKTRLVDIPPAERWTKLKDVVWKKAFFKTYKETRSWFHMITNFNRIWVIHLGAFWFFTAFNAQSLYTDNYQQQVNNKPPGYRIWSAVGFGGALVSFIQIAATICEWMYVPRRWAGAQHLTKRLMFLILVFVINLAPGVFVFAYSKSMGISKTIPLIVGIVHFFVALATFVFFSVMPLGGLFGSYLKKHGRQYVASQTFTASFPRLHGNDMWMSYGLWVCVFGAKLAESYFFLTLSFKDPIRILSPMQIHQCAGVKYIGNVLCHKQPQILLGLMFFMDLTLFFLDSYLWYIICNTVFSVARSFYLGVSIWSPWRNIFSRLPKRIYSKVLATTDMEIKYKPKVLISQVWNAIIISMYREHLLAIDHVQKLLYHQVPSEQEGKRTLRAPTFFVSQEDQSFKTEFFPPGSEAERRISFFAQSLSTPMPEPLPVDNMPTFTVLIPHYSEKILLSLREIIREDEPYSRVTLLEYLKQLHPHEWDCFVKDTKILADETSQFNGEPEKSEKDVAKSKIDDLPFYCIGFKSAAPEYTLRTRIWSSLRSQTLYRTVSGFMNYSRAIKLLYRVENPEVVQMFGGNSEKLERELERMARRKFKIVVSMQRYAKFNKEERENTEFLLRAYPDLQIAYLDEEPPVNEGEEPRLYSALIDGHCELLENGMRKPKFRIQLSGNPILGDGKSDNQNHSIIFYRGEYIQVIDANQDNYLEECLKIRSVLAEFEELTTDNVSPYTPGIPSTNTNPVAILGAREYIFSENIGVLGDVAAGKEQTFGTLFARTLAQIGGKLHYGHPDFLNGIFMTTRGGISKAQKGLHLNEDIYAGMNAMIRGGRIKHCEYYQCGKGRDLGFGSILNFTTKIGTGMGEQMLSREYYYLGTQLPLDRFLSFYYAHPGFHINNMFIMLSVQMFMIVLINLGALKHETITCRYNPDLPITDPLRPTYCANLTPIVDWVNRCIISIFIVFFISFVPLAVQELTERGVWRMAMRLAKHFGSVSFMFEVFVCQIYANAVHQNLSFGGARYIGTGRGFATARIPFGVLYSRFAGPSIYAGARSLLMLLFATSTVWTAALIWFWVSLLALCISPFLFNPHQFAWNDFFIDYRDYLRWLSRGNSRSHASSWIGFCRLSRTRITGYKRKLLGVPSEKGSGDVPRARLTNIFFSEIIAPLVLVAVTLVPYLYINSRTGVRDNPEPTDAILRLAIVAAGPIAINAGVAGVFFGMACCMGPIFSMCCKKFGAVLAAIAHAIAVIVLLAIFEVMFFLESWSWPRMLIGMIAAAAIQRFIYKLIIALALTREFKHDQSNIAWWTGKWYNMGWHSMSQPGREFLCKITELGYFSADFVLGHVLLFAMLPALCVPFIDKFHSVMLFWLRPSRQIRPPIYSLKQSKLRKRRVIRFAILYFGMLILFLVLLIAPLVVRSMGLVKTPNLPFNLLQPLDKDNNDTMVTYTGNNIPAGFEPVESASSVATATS
Description: ATCC 13073 or RG101 was grown in liquid YPD medium at 37°C for 16 h. Partially purified glucan synthase was isolated by the product entrapment method, as previously described ([21]). Sensitivity to echinocandin drugs was measured by glucan synthase assay, using a 96-well multiscreen high-throughput screen filtration system (Millipore Corporation, Bedford, MA) in a final volume of 100 μl. Inhibition of the enzyme by the drug was analyzed after incubation of the enzyme with a radioactive substrate over a broad range of concentrations (0 to 10,000 ng/ml) of echinocandins for 1 h at room temperature. Radioactivity from the enzyme product, β-(1,3)-D-glucan, was measured. Inhibition profiles were determined using a sigmoidal response curve fitting algorithm with GraphPad Prism software (v 7.04).
To study the effect of lipids on the enzyme, dihydrosphingosine, phytosphingosine, or phytoceramide C2 (Sigma-Aldrich D6783, P2795, and C8105, respectively) was added directly to the assay mixture and coincubated with an echinocandin for 1 h at room temperature.

[10] = tested on: reactive oxygen species (ROS) in A. fumigatus RG101; experiment: ROS production, DCFDA fluorescence assay; format: cell-based, Aspergillus fumigatus; conditions: RG101
Description: ROS production in mycelia was measured using a protocol previously described by Blatzer et al. ([51]) with a few changes. Suspensions of 10^4 spores/ml of ATCC 13073 and RG101 were grown in static culture in complete supplement mixture (CSM) medium for 16 h in a 96-well microplate at 37°C. After incubation, the mycelia were washed once with CSM, 10 μM 2′,7′–dichlorofluorescin diacetate (DCFDA) dye was added, and cells were incubated in the dark at 37°C for 30 min. Cells were then washed three times with phosphate-buffered saline (PBS), and a final concentration of 1 μg/ml of each echinocandin in CSM medium was added to different wells. Fluorescence intensity (excitation at 485 nm and emission at 530 nm) was measured for 1 h in a microplate reader (Tecan Infinite M200 Pro). Mycelia stained with DCFDA without any drug were used as a control.

[11] = thiourea 15 mM with CAS 1 μg/ml

CCCCCOc1ccc(-c2ccc(-c3ccc(C(=O)N[C@H]4C[C@@H](O)[C@@H](O)NC(=O)[C@@H]5[C@@H](O)[C@@H](C)CN5C(=O)[C@H]([C@@H](C)O)NC(=O)[C@H]([C@H](O)[C@@H](O)c5ccc(O)cc5)NC(=O)[C@@H]5C[C@@H](O)CN5C(=O)[C@H]([C@@H](C)O)NC4=O)cc3)cc2)cc1 [ANF, anidulafungin] ({pTerphenylCO(4''-OnC5H11)}-[Orn(4R-OH,5R-OH)]T[Hyp][hTyr(3S-OH,4S-OH)]T[Pro(3S-OH,4S-Me)]; lactam 1-C)
Drug susceptibility testing result, ATCC 13073 (A. fumigatus ATCC 13073): 0.03 µg/mL | Growth phenotype of RG101 with drug in combination with CAS (A. fumigatus RG101 [1]): cross-resistance | Growth phenotype of RG101 with drug alone (A. fumigatus RG101 [1]): sensitive | Drug susceptibility testing result, RG101 (A. fumigatus RG101 [1]): 0.03 µg/mL

C[C@@H]1[C@H](O)[C@@H](C)/C=C/C=C/C=C/C=C/C=C/C=C/C=C/[C@H](O[C@@H]2O[C@H](C)[C@@H](O)[C@H](N)[C@@H]2O)C[C@@H]2O[C@](O)(C[C@@H](O)C[C@@H](O)[C@H](O)CC[C@@H](O)C[C@@H](O)CC(=O)O[C@H]1C)C[C@H](O)[C@H]2C(=O)O [Amphotericin B, amphotericin B]
Drug susceptibility testing result, ATCC 13073 (A. fumigatus ATCC 13073): 0.5 µg/mL | Drug susceptibility testing result, RG101 (A. fumigatus RG101 [1]): 0.5 µg/mL

CC(C)[C@@H](C)[C@@]1(C)CC[C@]2(C)[C@H]3CC[C@@H]4[C@@]5(COC[C@@]4(C)[C@@H](OC[C@](C)(N)C(C)(C)C)[C@H](n4ncnc4-c4ccncc4)C5)C3=CC[C@@]2(C)[C@@H]1C(=O)O [IFG, ibrexafungerp]
Growth phenotype of RG101 with drug in combination with CAS (A. fumigatus RG101 [1]): cross-resistance | Growth phenotype of RG101 with drug alone (A. fumigatus RG101 [1]): sensitive

CCC(C)n1ncn(-c2ccc(N3CCN(c4ccc(OCC5COC(Cn6cncn6)(c6ccc(Cl)cc6Cl)O5)cc4)CC3)cc2)c1=O (stereo not drawn) [Itraconazole, itraconazole]
Drug susceptibility testing result, ATCC 13073 (A. fumigatus ATCC 13073): 0.5 µg/mL | Drug susceptibility testing result, RG101 (A. fumigatus RG101 [1]): 0.5 µg/mL

CCCCCOc1ccc(-c2cc(-c3ccc(C(=O)N[C@H]4C[C@@H](O)[C@@H](O)NC(=O)[C@@H]5[C@@H](O)[C@@H](C)CN5C(=O)[C@H]([C@H](O)CC(N)=O)NC(=O)[C@H]([C@H](O)[C@@H](O)c5ccc(O)c(OS(=O)(=O)O)c5)NC(=O)[C@@H]5C[C@@H](O)CN5C(=O)[C@H]([C@@H](C)O)NC4=O)cc3)no2)cc1 [MFG, micafungin] (X1-[Orn(4R-OH,5R-OH)]T[Hyp][hTyr(3S-OH,4S-OH,3'-OSO3H)][Gln(3R-OH)][Pro(3S-OH,4S-Me)]; lactam 1-C)
MEC (minimum effective concentration) [2]: 4 µg/mL | MEC (minimum effective concentration) [3]: 2 µg/mL | MEC (minimum effective concentration) [4]: 2 µg/mL | MEC (minimum effective concentration) [5]: 2 µg/mL | MEC (minimum effective concentration) [6]: 4 µg/mL | Drug susceptibility testing result, ATCC 13073 (A. fumigatus ATCC 13073): 0.03 µg/mL | MEC (minimum effective concentration) (A. fumigatus ATCC 13073; ATCC 13073, fks1 WT): 0.03 µg/mL | MEC (minimum effective concentration) ([7]; S679P, fks1 Ser-679-Pro): 16 µg/mL | Growth phenotype of RG101 with drug in combination with CAS (A. fumigatus RG101 [1]): cross-resistance | Growth phenotype of RG101 with drug alone (A. fumigatus RG101 [1]): sensitive | Drug susceptibility testing result, RG101 (A. fumigatus RG101 [1]): 0.03 µg/mL | Decrease in lung burden versus vehicle-treated group (A. fumigatus RG101 [8]; RG101, 5 mg/kg daily for 5 days): ~5 fold | Average fungal lung burden (A. fumigatus RG101 [8]; RG101 intratracheal, 5 mg/kg daily IP for 5 days, qPCR): 5.2 ng fungal DNA per lung | IC50 [9]: > 7.87 µM

CCCCCOc1ccc(-c2ccc(-c3ccc(C(=O)N[C@H]4C[C@@H](O)[C@@H](OCC[N+](C)(C)C)NC(=O)[C@@H]5[C@@H](O)[C@@H](C)CN5C(=O)[C@H]([C@@H](C)O)NC(=O)[C@H]([C@H](O)[C@@H](O)c5ccc(O)cc5)NC(=O)[C@@H]5C[C@@H](O)CN5C(=O)[C@H]([C@@H](C)O)NC4=O)cc3)cc2)cc1 [RZF, rezafungin] ({pTerphenylCO(4''-OnC5H11)}-[Orn(4R-OH,5R-OCH2CH2NMe3+)]T[Hyp][hTyr(3S-OH,4S-OH)]T[Pro(3S-OH,4S-Me)]; lactam 1-C)
Growth phenotype of RG101 with drug in combination with CAS (A. fumigatus RG101 [1]): cross-resistance | Growth phenotype of RG101 with drug alone (A. fumigatus RG101 [1]): sensitive

C[C@@H](c1ncncc1F)[C@](O)(Cn1cncn1)c1ccc(F)cc1F [Voriconazole, voriconazole]
Drug susceptibility testing result, ATCC 13073 (A. fumigatus ATCC 13073): 0.12 µg/mL | Drug susceptibility testing result, RG101 (A. fumigatus RG101 [1]): 0.12 µg/mL

CCCCCC[C@H]1C(=O)O[C@H](C)[C@H](NC(=O)c2cccc(NC=O)c2O)C(=O)O[C@@H](C)[C@@H]1OC(=O)CC(C)C [antimycin A]
Decrease of CAS-induced ROS production ([10]; 0.5 μg/ml antimycin A): over 2 fold

NC(N)=S [thiourea]
Effect on CAS phenotype of ATCC 13073 (A. fumigatus ATCC 13073; [11]): no change | Effect on CAS resistance of S679P [7, 11]: no effect | Effect on CAS-induced breakthrough resistance phenotype of RG101 (A. fumigatus RG101 [1]; [11]): reversed | Reduction of CAS-induced ROS levels ([10]; 15 mM thiourea): 4 fold

Reference: article PMC6550521, “Stress-Induced Changes in the Lipid Microenvironment of β-(1,3)-D-Glucan Synthase Cause Clinically Important Echinocandin Resistance in Aspergillus fumigatus” (mBio, 2019)
